Earlier results on three compounds are cited in patent US20140073699A1, “Combination Therapies for the Treatment of Obesity” (Metabolous Pharmaceuticals, Inc., priority 2009, published 2014).

The conditions of the data set: literature studies.
As to `CCN[C@@H](C)Cc1cccc(C(F)(F)F)c1` [dexfenfluramine], the “weight loss of body weight for drug compared with placebo” value (from here on “weight loss … compared with placebo”) is on record as “about 5%”.

With `CCCCCCCCCCC[C@@H](C[C@@H]1OC(=O)[C@H]1CCCCCC)OC(=O)[C@H](CC(C)C)NC=O` [orlistat], the “weight loss … compared with placebo” value is listed as “about 5%”.

As to `CC(C)CC(N(C)C)C1(c2ccc(Cl)cc2)CCC1` (stereo not drawn) [sibutramine], the “weight loss … compared with placebo” value is “about 5%”.
